Test results reported in patent US12617762B2, “Carboxy derivatives with antiinflamatory properties” (Sitryx Therapeutics Limited, priority 2019, dated 2026).
Like-named read-outs stand apart in the source and are kept apart here.

Key:
[1] = tested on: IL-1β cytokine output from THP-1s; assay: THP-1 AlphaLISA IL-1β cytokine inhibition assay; format: cell-based; details: for IC50: Homo sapiens; for IL-1β lowering, result in words: THP-1 IL-1β assay
Summary of the method: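 THP-1 cells differentiated with PMA for 72 h, pre-incubated with compound 30 min, then LPS-primed 24 h and Nigericin-stimulated 1 h (37° C./5% CO2). Supernatant IL-1β measured by AlphaLISA; percentage inhibition normalised to +LPS (high) and −LPS (low) plate controls.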

[2] = tested on: IL-6 cytokine output from THP-1s; assay: THP-1 AlphaLISA IL-6 cytokine inhibition assay; format: cell-based; details: Homo sapiens, LPS then nigericin
Procedure: The cytokine inhibition profiles of compounds of formula (I) were determined in a differentiated THP-1 cell assay. All assays were performed in RPMI-1640 growth medium (Gibco), supplemented with 10% fetal bovine serum (FBS; Gibco), 1% penicillin-streptomycin and 1% sodium pyruvate unless specified otherwise. The IL-1β cytokine inhibition assay was run in a background of differentiated THP-1 cells as described below. All reagents described were from Sigma-Aldrich unless specified otherwise. Compounds were prepared as 10 mM DMSO stocks.
THP-1 cells were expanded as a suspension up to 80% confluence in appropriate growth medium. Cells were harvested, suspended, and treated with an appropriate concentration of phorbol 12-myristate 13-acetate (PMA) over a 72 hr period (37° C./5% CO2).
Following 72 hrs of THP-1 cell incubation, cellular medium was removed and replaced with fresh growth media containing 1% of FBS. Working concentrations of compounds were prepared separately in 10% FBS treated growth medium and pre-incubated with the cells for 30 minutes (37° C./5% CO2). Following the 30 minute compound pre-incubation, THP-1s were treated with an appropriate concentration of LPS and the cells were subsequently incubated for a 24 hr period (37° C./5% CO2). An appropriate final concentration of Nigericin was then dispensed into the THP-1 plates and incubated for 1 hour (37° C./5% CO2) before THP-1 supernatants were harvested and collected in separate polypropylene 96-well holding plates.
Reagents from an IL-1β and IL-6 commercial kit (Perkin Elmer) were prepared and run according to the manufacturer's instructions. Subsequently, fluorescence signal detection in a microplate reader was measured (EnVision® Multilabel Reader, Perkin Elmer).
Percentage inhibition was calculated per cytokine by normalising the sample data to the high and low controls used within each plate (+/− LPS respectively).

[3] = Hepatocyte stability assay, human; format: in vitro ADME; details: human, hepatocytes; for hepatocyte CLint at 10 μM: Hepatocyte stability Clint; for half-life at 10 μM: Hepatocyte stability T½
Summary of the method: (§1)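 Cells and buffer-only plates are preincubated 10 min at 37° C; 10 μM test compound is then added to hepatocytes (0.5×10^6 cells/mL) and sampled to 60 min. Aliquots are crashed into acetonitrile, spun, and measured by LC-MS/MS to calculate intrinsic clearance from the decline of parent.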

[4] = Hepatocyte stability assay, mouse; format: in vitro ADME; details: mouse, hepatocytes; for hepatocyte CLint at 10 μM: Hepatocyte stability Clint; for half-life at 10 μM: Hepatocyte stability T½
Summary of the method: as §1

[5] = tested on: NRF2 (nuclear factor erythroid 2-related factor 2); assay: NRF2 +/-GSH activation assay (DiscoverX PathHunter NRF2 translocation kit, U2OS cells); format: cell-based
Summary of the method: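 U2OS PathHunter eXpress cells, 24 h post-plating, treated with compound ±GSH (+GSH arm: 30 min compound–GSH pre-incubation, 6 mM working GSH), then 6 h at 37 °C. NRF2 nuclear translocation read by enzyme-fragment-complementation chemiluminescence; % activation normalised to DMF high and untreated low controls.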

[6] = THP-1, differentiated THP-1 cells, LPS then nigericin
[7] = THP-1, differentiated THP-1 cells
[8] = +GSH, 30 minute compound-GSH pre-incubation, read-out: NRF2 activation +GSH EC50
[9] = +GSH, normalised to DMF high control
[10] = −GSH, U2OS PathHunter cells, 6 hours compound treatment, read-out: NRF2 activation −GSH EC50
[11] = −GSH, normalised to DMF high control

Compound	IC50 [1, 6] [µM]	IC50 [2, 7] [µM]	IL-1β lowering, result in words [1]	hepatocyte CLint at 10 μM [3] [µL/min/1e6 cells]	half-life at 10 μM [3] [min]	hepatocyte CLint at 10 μM [4] [µL/min/1e6 cells]	half-life at 10 μM [4] [min]	EC50 [5, 8] [µM]	NRF2 activation +GSH Emax [5, 9] [%]	EC50 [5, 10] [µM]	NRF2 activation −GSH Emax [5, 11] [%]	IC50 ([2]; differentiated THP-1 cells) [µM]	IC50 ([1]; THP-1, Table 3, head to head comparison of exo vs endo double bond compounds) [µM]	EC50 ([5]; −GSH, Table 5 exo vs endo comparison, read-out: −GSH EC50) [µM]	−GSH Emax ([5]; −GSH, normalised to DMF high control, Table 5 exo vs endo comparison) [%]
C=C(Cc1nc(C2(c3ccc(OCCCC)cc3)CC2)no1)C(=O)O [Example 80, 2-((3-(1-(4-butoxyphenyl)cyclopropyl)-1,2,4-oxadiazol-5-yl)methyl)acrylic acid]	37.2	9.6													
C=C(Cc1nc(-c2ccc(CCC3CC3)cc2)no1)C(=O)O [Example 76, 2-((3-(4-(2-cyclopropylethyl)phenyl)-1,2,4-oxadiazol-5-yl)methyl)acrylic acid]	28.2	5.1													
C=C(Cc1nc(-c2ccc(CCC(F)(F)F)cc2)no1)C(=O)O [Example 73, 2-((3-(4-(3,3,3-trifluoropropyl)phenyl)-1,2,4-oxadiazol-5-yl)methyl)acrylic acid]	> 100	10.4	not effective												
C=C(Cc1nc(C2(c3ccc(OC(F)F)cc3)CC2)no1)C(=O)O [Example 78, 2-((3-(1-(4-(difluoromethoxy)phenyl)cyclopropyl)-1,2,4-oxadiazol-5-yl)methyl)acrylic acid]	24.3	> 100													
C=C(Cc1nc(Cc2ccc(CC(C)(C)C)cc2)no1)C(=O)O [Example 69, 2-((3-(4-neopentylbenzyl)-1,2,4-oxadiazol-5-yl)methyl)acrylic acid]	48.6	10.1													
C=C(Cc1nc(Cc2ccc(Cl)c(Cl)c2)no1)C(=O)O [Example 14, 2-((3-(3,4-dichlorobenzyl)-1,2,4-oxadiazol-5-yl)methyl)acrylic acid]	> 100		not effective	6	240	18	72	52.2	46	21.8	78				
C=C(Cc1nc(C2(c3ccc(OC)c(Cl)c3)CC2)no1)C(=O)O [Example 140, 2-((3-(1-(3-chloro-4-methoxyphenyl)cyclopropyl)-1,2,4-oxadiazol-5-yl)methyl)acrylic acid]	29.5											> 100			
C=C(Cc1nc(CCCCCC(C)C)no1)C(=O)O [Example 68, 2-((3-(6-methylheptyl)-1,2,4-oxadiazol-5-yl)methyl)acrylic acid]	19.5	5.7													
C=C(Cc1nc(-c2ccc(CCCC)cc2)no1)C(=O)O [Example 18, 2-((3-(4-butylphenyl)-1,2,4-oxadiazol-5-yl)methyl)acrylic acid]	15.3			159	11	> 460	< 3	3.8	159	3.5	207				
C=C(Cc1nc(Cc2ccc(OC(F)(F)F)cc2)no1)C(=O)O [Example 46, 2-((3-(4-(trifluoromethoxy)benzyl)-1,2,4-oxadiazol-5-yl)methyl)acrylic acid]	41.9			< 3	> 447	17	76	36.2	51	31.1	106				
C=C(Cc1nc(C2(c3cccc(Cl)c3)CC2)no1)C(=O)O [Example 21, 2-((3-(1-(3-chlorophenyl)cyclopropyl)-1,2,4-oxadiazol-5-yl)methyl)acrylic acid]	> 100		not effective	21	83	62	28	44	81	31.7	125				
CCCCOc1ccc(-c2noc(/C=C(\C)C(=O)O)n2)cc1 [Example 167]	> 100			35	35	331	6	> 100	15	> 100	100		> 100	> 100	100
C=C(Cc1nc(-c2ccc(Cl)cc2)no1)C(=O)O [Example 7, 2-((3-(4-chlorophenyl)-1,2,4-oxadiazol-5-yl)methyl)acrylic acid]	> 100		not effective	< 6	> 320	28	49	44.5	89	39.7	113				
C=C(Cc1nc(-c2ccc(CCCC)cc2)co1)C(=O)O [Example 101, 2-((4-(4-butylphenyl)oxazol-2-yl)methyl)acrylic acid]	52.4	4.6													
C=C(Cc1ccccc1Cl)C(=O)O [2-(2-chlorobenzyl)acrylic acid, reference compound]	> 100			21		95		> 100	9	> 100	2				
C=C(Cc1nc(CCCCCCCC)co1)C(=O)O [Example 39, 2-((4-octyloxazol-2-yl)methyl)acrylic acid]	8.5			386	3	> 460	< 3	7.6	172	5.1	234				
C=C(Cc1nc(Cc2ccc(Cl)cc2)no1)C(=O)O [Example 4, 2-((3-(4-chlorobenzyl)-1,2,4-oxadiazol-5-yl)methyl)acrylic acid]	49.3			< 3	> 460	13	93	> 100	23	40.5	47				
